Earlier results as cited in US20220354784A1, “STABLE LATANOPROST COMPOUND OPHTHALMIC COMPOSITIONS” (Somerset Therapeutics LLC, priority 2021, published 2022).

Settings: patients starting on monotherapy

Compared with `CCNC(=O)CCC/C=C\C[C@@H]1[C@@H](/C=C/[C@@H](O)CCc2ccccc2)[C@H](O)C[C@@H]1O` [bimatoprost], `CC(C)OC(=O)CCC/C=C\C[C@@H]1[C@@H](CC[C@@H](O)CCc2ccccc2)[C@H](O)C[C@@H]1O` [latanoprost, isopropyl (Z)-7[(1R,2R,3R,5S)3,5-dihydroxy-2-[(3R)-3-hydroxy-5-phenylpentyl]cyclopentyl]-5-heptanoate] is higher in “rate of adjunctive medication use” value: 23.2% for the first, 30.2% for the second.

For `CC(C)OC(=O)CCC/C=C\C[C@@H]1[C@@H](/C=C/[C@@H](O)COc2cccc(C(F)(F)F)c2)[C@H](O)C[C@@H]1O` [travoprost], the “rate of adjunctive medication use” value is given as 22.5%.
